From paper PMC7017153, “Assembly of a G-Quadruplex Repair Complex by the FANCJ DNA Helicase and the REV1 Polymerase” (Genes, 2019)
Entries after “also recorded” stand apart in the source; their conditions may differ. Blank lines part the entries; values can stand above or below the molecule they belong to. Where no end group is shown, it is not given here. The star is where a group is joined. Biotin = O=C1N[C@H]2[C@H](CS[C@H]2CCCCC(=O)*)N1

How the values were obtained:
[1] = Circular dichroism (CD) of G4 DNA in KCl; format: physicochemical; settings: 20 mM boric acid pH 7.5, 150 mM KCl, 25 °C, 320-220 nm
Procedure: (§1) CD measurements were collected on a JASCO J-810 spectropolarimeter (JASCO Inc., Easton, MD, USA) equipped with a PTC-423S peltier system. G4 DNA samples were dialyzed into 20 mM Boric Acid pH 7.5, 150 mM KCl (or NaCl). CD spectra were collected from 320 nm to 220 nm at 25 °C. Five traces were obtained for each DNA substrate, and a reference scan of the buffer alone was subtracted from the averaged CD signal.

[2] = Circular dichroism (CD) of G4 DNA in NaCl; format: physicochemical; settings: 150 mM NaCl, 25 °C, 320-220 nm
Procedure: as §1

full-length human PCNA = assay: BLI, biotinylated FANCJ PIP peptides with PCNA; format: binding; settings: Buffer H, 25 °C; for Binding to PCNA: BLI
Source text: (§2) The pEB022 plasmid used to produce full-length human PCNA protein was kindly provided by Dr. M. Todd Washington (University of Iowa). A codon-optimized construct (VB170525-1265 nra) used to express human REV1 CTD (amino acid residues 1157 to 1251) in E. coli was synthesized by VectorBuilder Inc. (Chicago, IL, USA). Plasmids were transformed into NiCo21(DE3) competent cells from New England Biolabs (Ipswich, MA, USA). Single bacteria colonies were selected on LB agar plates that were supplemented with 50 µg/mL of kanamycin (PCNA) or carbenicillin (REV1 CTD) to inoculate starter cultures in LB broth. Overnight growths were diluted 1:50 into 4 × 1L LB (37 °C, 250 rpm). Protein expression was induced by adding IPTG to 1 mM when the optical density at 600 nm reached 0.4 absorbance units. Cells were cultured overnight at 16 °C. They were harvested 16 h post induction by centrifugation (6000 × g at 4 °C) for 60 min, and the pellets were resuspended in 20 mM NaPi (pH 7.5), 300 mM NaCl, 30 mM imidazole, 1 mM DTT, 5% (v/v) glycerol, 1% NP-40, and 1 mM PMSF.
(§3) BLI assays were performed on a BLItz instrument (Pall Fortébio, Fremont, CA, USA). Streptavidin-coated biosensors were purchased from Pall Fortébio (Lot 1906281). Biosensors were hydrated in Buffer H for 10 min, and the baseline optical interference was recorded. A total of 150 nM of biotinylated G4 DNA or FANCJ PIP peptide was loaded onto the sensors over 2 min, after which they were washed with Buffer H. Binding reactions were initiated by placing the biosensors in analyte solutions at the indicated concentrations. After their interactions had reached an equilibrium, the sensors were returned to buffer to monitor dissociation of the complexes. Experiments were repeated in triplicate. BLI binding isotherms were generated by plotting the plateau values of the association phase versus total analyte concentration. These curves were fit to a 1:1 interaction model, as described above. The parameters reported were obtained from the average and 95% confidence interval of the three data sets.
PIP-containing proteins bind directly to PCNA to coordinate DNA replication and repair. However, it is now evident that noncanonical PIP-boxes can serve as hotspots to recruit other proteins, including the REV1 translesion synthesis polymerase and the MLH1 mismatch repair protein [54, 55, 56, 64]. To test if the PIP-like motif in FANCJ functions as a PIP or an REV1-interacting region (RIR), we compared how this peptide bound to PCNA versus REV1 by BLI. Recombinant human PCNA protein and the C-terminal domain (CTD) of human REV1 were purified from E. coli (Figure S3A). Biotinylated FANCJ PIP was immobilized on a streptavidin-coated biosensor and experiments were performed as described above. […]

[3] = tested on: human REV1 CTD (amino acid residues 1157 to 1251); assay: BLI, biotinylated FANCJ PIP peptides with REV1 CTD; format: binding; settings: Buffer H, 25 °C; for BLI binding signal (Δλ), REV1 CTD versus PCNA: 1.3 µM PCNA trimer
Source text: as §2, §3
PIP-containing proteins bind directly to PCNA to coordinate DNA replication and repair. However, it is now evident that noncanonical PIP-boxes can serve as hotspots to recruit other proteins, including the REV1 translesion synthesis polymerase and the MLH1 mismatch repair protein [54, 55, 56, 64]. To test if the PIP-like motif in FANCJ functions as a PIP or an REV1-interacting region (RIR), we compared how this peptide bound to PCNA versus REV1 by BLI. Recombinant human PCNA protein and the C-terminal domain (CTD) of human REV1 were purified from E. coli (Figure S3A). Biotinylated FANCJ PIP was immobilized on a streptavidin-coated biosensor and experiments were performed as described above. […] Because Δλ is related to the thickness of the biolayer, this value reports the accumulation of mass on the sensor tip. […] This difference is further magnified as REV1 CTD has a molecular mass of ~12 kDa, while a human PCNA trimer is about seven times its size, at ~86 kDa. Next, we tested the effects of a FANCJ PIP AA peptide on its interactions with REV1 CTD and PCNA. The consecutive consensus aromatic residues (YF) within the potential PIP-motif were replaced with alanine amino acids (AA). […] BLI experiments with PIP and PIP AA were repeated as a function of REV1 CTD and PCNA concentration to measure their corresponding equilibrium constant values.

bioFANCJ PIP AA (human) = assay: BLI; 150 nM biotinylated FANCJ PIP or PIP AA peptide loaded on streptavidin biosensors (BLItz); REV1 CTD (1.8 uM) or PCNA trimer (1.3 uM) as analyte, also as a function of analyte concentration; Buffer H (20 mM HEPES pH 7.5, 150 mM KCl, 5 mM TCEP, 5% glycerol), 25 C; plateau values fit to a 1:1 model
[4] = target: T1, full-length human PCNA protein (human, UniProt P12004 1-261); assay: as above; settings: both partners purified
T1 construct: PCNA sliding clamp, human, full length; made from plasmid pEB022; also called PCNA trimer; source: E. coli NiCo21(DE3), purified (Ni2+ IMAC, heparin)
T1 sequence (P12004 whole entry): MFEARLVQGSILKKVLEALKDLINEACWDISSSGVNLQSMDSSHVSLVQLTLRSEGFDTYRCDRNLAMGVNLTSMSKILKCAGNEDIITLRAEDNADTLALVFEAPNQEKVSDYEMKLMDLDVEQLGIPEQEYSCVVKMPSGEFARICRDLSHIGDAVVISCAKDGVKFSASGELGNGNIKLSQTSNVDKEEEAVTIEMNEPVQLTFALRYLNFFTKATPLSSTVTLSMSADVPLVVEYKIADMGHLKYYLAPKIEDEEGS

[5] = target: T2, human REV1 CTD (amino acid residues 1157 to 1251) (human, UniProt Q9UBZ9 1157-1251); assay: as above; settings: both partners purified
T2 construct: REV1 translesion DNA synthesis polymerase, human, C-terminal domain, residues 1157-1251; codon-optimized construct; also called C-terminal domain (CTD) of human REV1; source: E. coli NiCo21(DE3), purified (Ni2+ IMAC, heparin)
T2 sequence (looked up): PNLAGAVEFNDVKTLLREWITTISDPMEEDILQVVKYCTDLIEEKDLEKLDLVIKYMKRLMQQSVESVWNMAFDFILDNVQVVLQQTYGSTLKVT

[6] = BLI isotherms, PIP AA versus wild-type PIP
[7] = biotinylated peptide 150 nM, 1.8 µM REV1 CTD

Molecule: (TTAGGG)4: human telomeric G4 DNA, TTAGGGTTAGGGTTAGGGTTAGGG
G4 conformation by CD (KCl) [1]: folded into a hybrid conformation
G4 conformation by CD (NaCl) [2]: adopted an anti-parallel configuration in NaCl buffer

Molecule: Biotin-SWSSFNSLGQAATGKIP [FANCJ PIP AA, Biotin-…, YF replaced with AA]
Change in affinity (binding constant) for PCNA by PIP AA mutation (full-length human PCNA; [6]): binding of PCNA was weakened twofold; also recorded: reduced the binding constant for PCNA by half
Binding to PCNA (full-length human PCNA): still retained residual interactions with PCNA
BLI binding signal, PIP AA versus wild-type PIP, PCNA (full-length human PCNA; biotinylated peptide 150 nM, 1.3 µM PCNA trimer): larger binding signals compared to the wild-type PIP sequence
Change in affinity for REV1 CTD by PIP AA mutation [3, 6]: small increase in affinity for REV1 CTD
BLI binding signal (Δλ), REV1 CTD versus PCNA [3, 7]: more REV1 CTD bound to the mutant peptide versus PCNA
BLI binding signal, PIP AA versus wild-type PIP, REV1 CTD [3, 7]: larger binding signals compared to the wild-type PIP sequence for REV1 CTD

Molecule: Biotin-SWSSFNSLGQYFTGKIP [FANCJ PIP, Biotin-…, FANCJ amino acids 1001–1017]
Binding to PCNA (full-length human PCNA): bound to REV1 CTD and to PCNA
Binding to REV1 CTD ([3]; BLI): bound to REV1 CTD
BLI binding signal (Δλ), REV1 CTD versus PCNA [3, 7]: REV1 CTD produced a larger binding signal than PCNA at similar molar concentrations of protein; also recorded: Interactions with REV1 CTD, however, produced a stronger binding signal than PCNA

The remaining lines, values ahead:

fold weakening of the equilibrium constant against wild-type FANCJ PIP (bioFANCJ PIP AA (human)): 2 fold
Molecule: full-length human PCNA protein (from UniProt P12004 1-261)

binding result [4]: binds
binding result [5]: binds
B1: bioFANCJ PIP (peptide)
peptide: Biotin-SWSSFNSLGQYFTGKIP
notes: FANCJ helicase, human, PIP-like motif, amino acids 1001-1017; Held on streptavidin biosensors by the N-terminal biotin; also called biotinylated FANCJ PIP; wild-type PIP; source: synthetic peptide (Genscript)
